Measured values: ChEMBL document CHEMBL1154708, “Identification of a brain penetrant PDE9A inhibitor utilizing prospective design and chemical enablement as a rapid lead optimization strategy” (J Med Chem, 2009)

Experiments:
[1] = target: Dual specificity calcium/calmodulin-dependent 3',5'-cyclic nucleotide phosphodiesterase 1C (Homo sapiens, UniProt Q14123); assay: Inhibition of human recombinant PDE1C expressed in Sf9 cells by SPA
[2] = target: T1, High affinity cGMP-specific 3',5'-cyclic phosphodiesterase 9A (Homo sapiens, UniProt O76083); assay: Inhibition of human recombinant PDE9A expressed in Sf9 cells by SPA
[3] = target: T1, High affinity cGMP-specific 3',5'-cyclic phosphodiesterase 9A; assay: Binding affinity to PDE9A
[4] = Inhibition of PDE6
Mus musculus [5] = assay: Increase in cGMP level in CD1 mouse striatum at 3.2 mg/kg, sc after 30 mins; assay type: functional; conditions: route subcutaneous
[6] = target: 3',5'-cyclic-AMP phosphodiesterase 7B (Homo sapiens, UniProt Q9NP56); assay: Inhibition of PDE7B
[7] = target: Dual 3',5'-cyclic-AMP and -GMP phosphodiesterase 11A (Homo sapiens, UniProt Q9HCR9); assay: Inhibition of PDE11
[8] = Ratio of drug level in brain to plasma of rat; assay type: ADME, cell-free; conditions: brain and plasma
Mus musculus [9] = assay: Increase in […] level in CD1 mouse striatum at 0.32 mg/kg, sc after 30 mins; assay type: functional; conditions: route subcutaneous
[10] = target: cGMP-inhibited 3',5'-cyclic phosphodiesterase 3A (Homo sapiens, UniProt Q14432); assay: Inhibition of PDE3A
[11] = target: cAMP and cAMP-inhibited cGMP 3',5'-cyclic phosphodiesterase 10A (Homo sapiens, UniProt Q9Y233); assay: Inhibition of PDE10
[12] = target: 3',5'-cyclic-AMP phosphodiesterase 4C (Homo sapiens, UniProt Q08493); assay: Inhibition of PDE4C
Mus musculus [13] = assay: Increase in […] level in CD1 mouse striatum at 1 mg/kg, sc after 30 mins; assay type: functional; conditions: route subcutaneous
[14] = target: cGMP-specific 3',5'-cyclic phosphodiesterase (Homo sapiens, UniProt O76074); assay: Inhibition of PDE5
[15] = Inhibition of PDE2
Mus musculus [16] = assay: Increase in […] level in CD1 mouse striatum at 10 mg/kg, sc after 30 mins; assay type: functional; conditions: route subcutaneous
Mus musculus [17] = assay: Increase in cGMP level in sc dosed CD1 mouse striatum after 30 mins; assay type: functional, organism-based
[18] = target: High affinity cAMP-specific and IBMX-insensitive 3',5'-cyclic phosphodiesterase 8B (Homo sapiens, UniProt O95263); assay: Inhibition of PDE8B
Chain of High affinity cAMP-specific and IBMX-insensitive 3',5'-cyclic phosphodiesterase 8B (O95263 whole entry): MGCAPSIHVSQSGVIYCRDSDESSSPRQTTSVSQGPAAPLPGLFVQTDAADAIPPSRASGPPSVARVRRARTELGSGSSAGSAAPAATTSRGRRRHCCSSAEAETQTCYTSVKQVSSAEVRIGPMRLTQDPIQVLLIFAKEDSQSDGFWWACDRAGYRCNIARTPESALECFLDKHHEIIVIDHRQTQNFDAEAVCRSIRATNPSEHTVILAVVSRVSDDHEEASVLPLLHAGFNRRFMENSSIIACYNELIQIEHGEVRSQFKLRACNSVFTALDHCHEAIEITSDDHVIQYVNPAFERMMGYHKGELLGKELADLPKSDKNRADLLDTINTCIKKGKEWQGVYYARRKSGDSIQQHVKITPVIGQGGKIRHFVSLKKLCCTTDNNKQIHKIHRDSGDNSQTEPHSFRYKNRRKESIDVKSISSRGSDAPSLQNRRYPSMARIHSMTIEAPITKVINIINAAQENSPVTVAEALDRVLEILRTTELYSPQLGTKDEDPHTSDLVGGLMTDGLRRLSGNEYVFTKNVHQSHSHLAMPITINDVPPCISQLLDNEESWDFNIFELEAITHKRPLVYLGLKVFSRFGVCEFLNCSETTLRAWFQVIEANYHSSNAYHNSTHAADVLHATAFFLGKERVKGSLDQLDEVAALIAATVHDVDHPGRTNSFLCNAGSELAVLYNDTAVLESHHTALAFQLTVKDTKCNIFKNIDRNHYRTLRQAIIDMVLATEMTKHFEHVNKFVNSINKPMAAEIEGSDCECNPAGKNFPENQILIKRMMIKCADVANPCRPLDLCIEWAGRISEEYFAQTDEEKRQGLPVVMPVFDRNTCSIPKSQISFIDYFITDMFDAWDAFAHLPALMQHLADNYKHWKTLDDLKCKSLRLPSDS

T1 sequence (O76083 whole entry): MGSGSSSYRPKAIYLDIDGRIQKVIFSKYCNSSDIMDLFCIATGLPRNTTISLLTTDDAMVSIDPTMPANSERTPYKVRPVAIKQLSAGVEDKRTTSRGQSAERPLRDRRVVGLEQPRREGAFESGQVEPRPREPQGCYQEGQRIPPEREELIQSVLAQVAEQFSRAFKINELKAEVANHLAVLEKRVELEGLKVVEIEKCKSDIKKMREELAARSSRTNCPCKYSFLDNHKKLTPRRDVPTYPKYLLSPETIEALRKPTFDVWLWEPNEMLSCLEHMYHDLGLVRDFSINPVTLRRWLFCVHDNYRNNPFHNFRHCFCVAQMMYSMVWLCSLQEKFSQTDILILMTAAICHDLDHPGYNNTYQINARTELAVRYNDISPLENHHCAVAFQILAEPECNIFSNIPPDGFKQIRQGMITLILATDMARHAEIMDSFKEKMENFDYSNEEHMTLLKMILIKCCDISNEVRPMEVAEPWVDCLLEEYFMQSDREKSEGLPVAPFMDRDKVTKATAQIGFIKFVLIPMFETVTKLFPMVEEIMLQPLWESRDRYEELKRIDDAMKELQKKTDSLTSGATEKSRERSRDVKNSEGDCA
Chain of Dual specificity calcium/calmodulin-dependent 3',5'-cyclic nucleotide phosphodiesterase 1C (Q14123 whole entry): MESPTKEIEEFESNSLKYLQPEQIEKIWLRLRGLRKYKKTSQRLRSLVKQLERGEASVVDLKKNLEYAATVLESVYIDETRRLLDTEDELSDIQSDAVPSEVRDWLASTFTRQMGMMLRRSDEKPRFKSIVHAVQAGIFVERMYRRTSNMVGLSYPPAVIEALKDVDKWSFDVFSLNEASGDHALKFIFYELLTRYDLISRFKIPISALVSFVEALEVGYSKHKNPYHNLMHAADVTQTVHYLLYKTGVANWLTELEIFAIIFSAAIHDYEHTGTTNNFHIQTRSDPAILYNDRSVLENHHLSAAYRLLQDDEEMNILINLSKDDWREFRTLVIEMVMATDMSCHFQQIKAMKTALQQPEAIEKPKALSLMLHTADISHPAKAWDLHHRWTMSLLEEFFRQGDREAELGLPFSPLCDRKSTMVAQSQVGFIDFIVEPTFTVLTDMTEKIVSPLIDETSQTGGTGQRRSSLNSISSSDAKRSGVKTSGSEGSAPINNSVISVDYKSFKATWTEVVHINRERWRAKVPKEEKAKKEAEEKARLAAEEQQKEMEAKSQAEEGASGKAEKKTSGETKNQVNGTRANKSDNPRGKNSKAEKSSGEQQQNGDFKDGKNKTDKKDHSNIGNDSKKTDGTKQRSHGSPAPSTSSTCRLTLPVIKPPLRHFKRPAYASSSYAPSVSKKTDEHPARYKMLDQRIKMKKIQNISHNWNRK
Chain of 3',5'-cyclic-AMP phosphodiesterase 7B (Q9NP56 whole entry): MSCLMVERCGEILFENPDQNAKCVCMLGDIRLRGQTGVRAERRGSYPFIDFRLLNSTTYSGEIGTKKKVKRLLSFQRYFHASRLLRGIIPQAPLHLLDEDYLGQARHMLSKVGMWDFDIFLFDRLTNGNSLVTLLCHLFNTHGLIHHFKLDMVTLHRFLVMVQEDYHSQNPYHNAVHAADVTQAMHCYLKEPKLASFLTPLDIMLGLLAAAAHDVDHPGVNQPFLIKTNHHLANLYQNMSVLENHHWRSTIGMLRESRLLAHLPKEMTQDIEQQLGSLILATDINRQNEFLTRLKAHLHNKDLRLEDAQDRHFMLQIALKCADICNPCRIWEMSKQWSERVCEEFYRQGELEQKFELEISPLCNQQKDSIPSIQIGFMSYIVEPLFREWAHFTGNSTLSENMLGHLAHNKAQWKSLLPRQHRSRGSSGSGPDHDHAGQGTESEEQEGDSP
Chain of Dual 3',5'-cyclic-AMP and -GMP phosphodiesterase 11A (Q9HCR9 whole entry): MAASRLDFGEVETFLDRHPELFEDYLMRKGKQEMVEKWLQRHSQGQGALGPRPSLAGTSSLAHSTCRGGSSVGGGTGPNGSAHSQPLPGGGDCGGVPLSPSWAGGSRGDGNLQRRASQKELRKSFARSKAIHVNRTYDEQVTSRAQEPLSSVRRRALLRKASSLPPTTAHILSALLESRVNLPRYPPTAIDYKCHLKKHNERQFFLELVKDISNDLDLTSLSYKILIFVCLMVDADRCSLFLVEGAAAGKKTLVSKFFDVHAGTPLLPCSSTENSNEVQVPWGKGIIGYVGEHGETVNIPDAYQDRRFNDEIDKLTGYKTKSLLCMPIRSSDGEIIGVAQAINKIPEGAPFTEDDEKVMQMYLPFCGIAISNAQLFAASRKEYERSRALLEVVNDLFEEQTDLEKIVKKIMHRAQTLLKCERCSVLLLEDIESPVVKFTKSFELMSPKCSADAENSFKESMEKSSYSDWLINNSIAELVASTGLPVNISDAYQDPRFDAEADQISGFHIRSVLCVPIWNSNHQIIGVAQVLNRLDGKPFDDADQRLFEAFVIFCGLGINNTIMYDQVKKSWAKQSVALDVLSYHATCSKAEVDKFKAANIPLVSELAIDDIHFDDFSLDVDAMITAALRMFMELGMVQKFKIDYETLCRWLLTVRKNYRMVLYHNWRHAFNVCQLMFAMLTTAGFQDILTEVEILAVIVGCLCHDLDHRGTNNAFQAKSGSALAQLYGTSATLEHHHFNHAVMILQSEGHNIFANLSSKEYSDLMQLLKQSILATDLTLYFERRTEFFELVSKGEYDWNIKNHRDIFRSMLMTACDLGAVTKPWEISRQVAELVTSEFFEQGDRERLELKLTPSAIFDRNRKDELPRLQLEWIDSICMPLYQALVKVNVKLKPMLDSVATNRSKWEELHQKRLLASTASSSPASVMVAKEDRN
Chain of 3',5'-cyclic-AMP phosphodiesterase 4C (Q08493 whole entry): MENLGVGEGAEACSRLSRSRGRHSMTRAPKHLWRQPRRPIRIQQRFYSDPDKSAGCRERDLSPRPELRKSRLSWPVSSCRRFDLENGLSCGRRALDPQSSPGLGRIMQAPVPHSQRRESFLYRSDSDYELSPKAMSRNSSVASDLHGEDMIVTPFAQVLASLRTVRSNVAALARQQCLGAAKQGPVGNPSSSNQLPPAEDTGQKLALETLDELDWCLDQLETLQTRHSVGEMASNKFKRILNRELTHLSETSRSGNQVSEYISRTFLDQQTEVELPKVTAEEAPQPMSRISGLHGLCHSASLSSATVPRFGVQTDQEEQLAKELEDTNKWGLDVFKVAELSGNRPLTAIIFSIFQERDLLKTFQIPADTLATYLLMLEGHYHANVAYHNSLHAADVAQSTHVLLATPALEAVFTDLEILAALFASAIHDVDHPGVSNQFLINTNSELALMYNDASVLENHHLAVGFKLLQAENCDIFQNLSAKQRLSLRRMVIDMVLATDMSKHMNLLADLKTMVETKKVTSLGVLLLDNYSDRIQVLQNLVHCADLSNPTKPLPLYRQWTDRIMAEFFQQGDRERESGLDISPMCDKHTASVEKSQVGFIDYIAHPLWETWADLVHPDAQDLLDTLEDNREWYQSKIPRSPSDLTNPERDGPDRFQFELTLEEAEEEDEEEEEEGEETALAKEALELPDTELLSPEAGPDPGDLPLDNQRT

SMILES	IC50 [1]	IC50 ([2]; read-out: IC50)	further results
C[C@@H]1CN(Cc2ccccc2)C[C@H]1c1nc2c(cnn2C2CCCC2)c(=O)[nH]1 (relative stereo)	970 nM	63 nM	–
C[C@@H]1CN(Cc2ccccn2)C[C@H]1c1nc2c(cnn2C2CCCC2)c(=O)[nH]1 (relative stereo)	1300 nM	200 nM	–
CC(C)Cn1ncc2c(=O)[nH]c([C@@H]3CN(Cc4ccccc4)C[C@H]3C)nc21 (relative stereo)	1500 nM	150 nM	–
Cc1ncc(CN2C[C@@H](C)[C@H](c3nc4c(cnn4C4CCCC4)c(=O)[nH]3)C2)cn1 (relative stereo)	400 nM	11 nM	–
CC(C)n1ncc2c(=O)[nH]c([C@@H]3CN(Cc4ccccc4)C[C@H]3C)nc21 (relative stereo)	2100 nM	–	–
COc1ccc(CN2C[C@@H](C)[C@H](c3nc4c(cnn4C4CCCC4)c(=O)[nH]3)C2)cn1 (relative stereo)	270 nM	29 nM	–
Cn1cc(-c2ccncc2)c(-c2ccc(OCc3ccc4ccccc4n3)cc2)n1	–	–	Activity [3]: 2.1 nM
Cc1cccc(CN2C[C@@H](C)[C@H](c3nc4c(cnn4C4CCCC4)c(=O)[nH]3)C2)c1 (relative stereo)	563 nM	40 nM	IC50 ([2]; read-out: pIC50 (converted)): 38 nM

More lines, in order of falling IC50 [1], values ahead:

IC50 [1]	IC50 ([2]; read-out: IC50)	SMILES	further results
220 nM	12 nM	C[C@@H]1CN(Cc2cn3ccccc3n2)C[C@H]1c1nc2c(cnn2C2CCCC2)c(=O)[nH]1 (relative stereo)	–
210 nM	15 nM	Cc1cnc(CN2C[C@@H](C)[C@H](c3nc4c(cnn4C4CCCC4)c(=O)[nH]3)C2)cn1 (relative stereo)	–
200 nM	11 nM	Cc1cc(CN2C[C@@H](C)[C@H](c3nc4c(cnn4C4CCCC4)c(=O)[nH]3)C2)n(C)n1 (relative stereo)	–
190 nM	16 nM	C[C@@H]1CN(Cc2ccc(C(F)(F)F)nc2)C[C@H]1c1nc2c(cnn2C2CCCC2)c(=O)[nH]1	–
110 nM	11 nM	Cc1cc(CN2C[C@@H](C)[C@H](c3nc4c(cnn4C4CCCC4)c(=O)[nH]3)C2)no1 (relative stereo)	–
73 nM	1.9 nM	C[C@H]1CN(Cc2ccc3nccnc3c2)C[C@@H]1c1nc2c(cnn2C2CCCC2)c(=O)[nH]1 (relative stereo)	–
50 nM	1.8 nM	C[C@@H]1CN(Cc2ccc3nccnc3c2)C[C@H]1c1nc2c(cnn2C2CCCC2)c(=O)[nH]1	IC50 [4]: 127 nM; Activity (Mus musculus [5]): 145%; IC50 [6]: > 1000 nM; IC50 [7]: > 1000 nM; Kp [8]: 1.4; Activity (Mus musculus [9]): 110%; IC50 [10]: > 1000 nM; IC50 [11]: > 1000 nM; IC50 [12]: > 1000 nM; Activity (Mus musculus [13]): 119%; IC50 [14]: 349 nM; IC50 [15]: > 1000 nM; Activity (Mus musculus [16]): 215%; Activity (Mus musculus [17]): Dose-dependent effect; IC50 [18]: > 1000 nM
